Counter-ions that a name gives are not always drawn. Like-named read-outs stand apart in the source and are kept apart here.
Key:
Recombinant IDO1 = target: T1, Recombinant IDO1 (Homo sapiens, UniProt P14902); experiment: IDO1 enzymatic assay; assay type: biochemical; conditions: 50 nM IDO1, 1.3 mM D-tryptophan, read-out: Enzyme IC50 (nM) IDO1
T1 construct: His tag (N); made in house; host or cells: E. coli
Description: Recombinant IDO1 was overexpressed and purified from E. coli cells with an N-terminal His tag. IDO1 enzymatic assay was carried out using a methodology similar to described in the literature (J. Biol. Chem. (1980), 255, 1339-1345.). The reaction mixture contains 50 nM IDO1, 1.3 mM D-tryptophan, 5 mM L-ascorbic acid, 6.25 μM methylene Blue, 0.4 mg/mL catalase and compound (or DMSO) in a buffer containing 50 mM potassium phosphate pH 7.5 and 0.1% BSA. After incubation at 24° C. for 1.5 hours, absorbance of the reaction mixture was continuously read at 321 nm to monitor the formation of N′-formylkynurenine by a FULOstar OMEGA plate reader (BMG LABTECH) for 1 hour. The enzymatic activity was determined by measuring the slope of the linear absorbance increase as a function of time. The IC50s are calculated based on remaining enzyme activity in the presence of increasing concentrations of compounds.

[1] = target: T2, cellular IDO1 in HeLa cells (Homo sapiens, UniProt P14902); experiment: HeLa cell-based IDO1 Kyn (kynurenine) production assay; conditions: IFN-γ 100 ng/mL, 48 hours
T2 construct: endogenous in cells; host or cells: HeLa cells (American Type Tissue Culture Collection), induced with human recombinant IFN-γ
T2 sequence (P14902 whole entry): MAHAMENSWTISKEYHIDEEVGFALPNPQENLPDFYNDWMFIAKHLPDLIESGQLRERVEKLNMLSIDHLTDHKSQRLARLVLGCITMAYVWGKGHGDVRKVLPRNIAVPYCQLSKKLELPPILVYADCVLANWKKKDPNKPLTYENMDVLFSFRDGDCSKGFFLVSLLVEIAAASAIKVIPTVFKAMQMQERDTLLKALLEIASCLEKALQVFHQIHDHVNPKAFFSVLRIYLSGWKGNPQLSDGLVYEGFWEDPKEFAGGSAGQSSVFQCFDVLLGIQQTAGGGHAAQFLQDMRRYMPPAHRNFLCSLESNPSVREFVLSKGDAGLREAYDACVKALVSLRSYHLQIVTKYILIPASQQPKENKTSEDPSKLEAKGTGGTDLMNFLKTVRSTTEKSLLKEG
Description: HeLa Cell-Based IDO1 Kyn (Kynurenine) Production Assay:
The inhibitory activity of IDO1 inhibitors is determined by using a colorimetric reaction to measure Kyn generated from L-Trp (L-Tryptophon) oxidation by cellular IDO1 in HeLa cells after induction of IDO1 by IFN-γ.
Hela cells were obtained from the American Type Tissue Culture Collection and recovered in 10% FBS-containing phenol red-free DMEM medium supplemented with 0.4 mM L-Trp. Cells were plated onto a 96-well plate (100 μl/well) at 8000 cells per well. Human recombinant IFN-γ (8901SC, CST) was added to cells (final concentration 100 ng/mL) to stimulate endogenous IDO1. Compounds at different concentrations diluted in dimethylsulfoxide (DMSO) were added simultaneously with IFN-γ. Cells were kept at 37° C. in a humidified incubator supplied with 5% CO2. After 48 hours of incubation, 100 μl supernatant from each well was removed to a new plate. The protein in the medium was precipitated with the addition of 8 μl 6N trichloroacetic acid. The plate was incubated at 60° C. for 45 min and then centrifugation at 2500 rpm for 10 min to remove sediments. 80 μl supernatants were carefully removed to a new clean plate and added with an equal volume of 2% 4-(Dimethylamino) benzaldehyde (D2004, sigma) dissolved in glacial acetic acid. The absorbance at 480 nm wavelength derived from Kyn was measured using a FULOstar OMEGA plate reader (BMG LABTECH). The IC50 for each compound was derived from fitting the dose-response data to the four-parameter logistic model by using Graphpad Prism software.

[2] = Table 2, 8-substituted imidazo[1,5-a]pyridines
[3] = Table 1, 5-substituted imidazo[1,5-a]pyridines

T1 sequence (P14902 whole entry): as above

| Structure (SMILES) | IC50 (Recombinant IDO1; [2]) [nM] | EC50 [1, 2] [µM] | IC50 (Recombinant IDO1; [3]) [nM] | EC50 [1, 3] [µM] |
| --- | --- | --- | --- | --- |
| OC(c1c(Cl)ccn2cncc12)C1CC=CCC1 (stereo not shown) [Example B116, (7-Chloroimidazo[1,5-a]pyridin-8-yl)(cyclohex-3-en-1-yl)methanol] | 61 | 4.58 |  |  |
| OC(c1c(C2CC2)ccn2cncc12)C1C=CCCC1 (stereo not shown) [Example B141, cyclohex-2-en-1-yl(7-cyclopropylimidazo[1,5-a]pyridin-8-yl)methanol] | 45 | 1.7 |  |  |
| OC(c1cccc2cncn12)C1CC1 (stereo not shown) [Example A003, cyclopropyl(imidazo[1,5-a]pyridin-5-yl)methanol] |  |  | 3800 |  |
| OC(CC1CCCCC1)c1c([C@H]2C[C@H]2F)ccn2cncc12 (relative stereo) [Example B127a, 2-Cyclohexyl-1-(7-(cis-2-fluorocyclopropyl)imidazo[1,5-a]pyridin-8-yl)ethan-1-ol] | 88 | 0.595 |  |  |
| OC1CC2CC1CC2C(O)c1c(C2CC2)ccc2cncn12 (stereo not shown) [Example A165, 5-((6-cyclopropylimidazo[1,5-a]pyridin-5-yl)(hydroxy)methyl)bicyclo[2.2.1]heptan-2-ol] |  |  | 430 | 1.2 |
| O[C@H](c1c(C2CC2)ccn2cncc12)[C@H]1C[C@H]2CC[C@@H]1C2 [Example B122a, (S)-((1R,2S,4S)-bicyclo[2.2.1]heptan-2-yl)(7-cyclopropylimidazo[1,5-a]pyridin-8-yl)methanol] | 58 | 0.033 |  |  |
| OC(CCc1cccn2cncc12)C1CCCCC1 (stereo not shown) [Example B010, 1-Cyclohexyl-3-(imidazo[1,5-a]pyridin-8-yl)propan-1-ol] | 14000 | > 10 |  |  |
| OC(c1cccc2cncn12)C1CCC1 (stereo not shown) [Example A018, cyclobutyl(imidazo[1,5-a]pyridin-5-yl)methanol] |  |  | 1800 |  |
| CC(O)(c1cccc2cncn12)C1CCCCC1 (stereo not shown) [Example A016, 1-cyclohexyl-1-(imidazo[1,5-a]pyridin-5-yl)ethan-1-ol] |  |  | 23000 | > 10 |
| OC(c1c(C2CC2)ccc2cncn12)C1CC2CCC1C2 (stereo not shown) [Example A162, (Bicyclo[2.2.1]heptan-2-yl)(6-cyclopropylimidazo[1,5-a]pyridin-5-yl)methanol] |  |  | 32 | 0.034 |
| OC(c1c(C2CC2)ccn2cncc12)[C@H]1CC[C@@H](O)CC1 (single isomer, unassigned) [Example B119c] | 7700 | > 10 |  |  |
| CC(C)c1ccn2cncc2c1[C@@H](O)[C@H]1CC[C@@H](O)CC1 (single isomer, unassigned) [Example B121c] | 110 | 1.67 |  |  |
| OC1CCC([C@H](O)c2c(C3CC3)ccc3cncn23)CC1 (stereo partly drawn) [Example A142a, (1R,4s)-4-((S)-(6-cyclopropylimidazo[1,5-a]pyridin-5-yl)(hydroxy)methyl)cyclohexan-1-ol] |  |  | 12 | 0.661 |
| OC(c1c(C2CC2)ccn2cncc12)C1CC2CCC1C2 (stereo not shown) [Example B122, bicyclo[2.2.1]heptan-2-yl(7-cyclopropylimidazo[1,5-a]pyridin-8-yl)methanol] | 53 | 0.116 |  |  |
| OC(c1cccc2cncn12)C1CCNCC1 (stereo not shown) [Example A013, Imidazo[1,5-a]pyridin-5-yl(piperidin-4-yl)methanol hydrochloride] |  |  | > 100000 |  |
| O=C(O)C1CCCC(C(O)c2c(C3CC3)ccn3cncc23)C1 (stereo not shown) [Example B138, 3-((7-Cyclopropylimidazo[1,5-a]pyridin-8-yl)(hydroxy)methyl)cyclohexane-1-carboxylic acid] | 1000 | > 10 |  |  |
| OC1CCCC(C(O)c2c(C3CC3)ccc3cncn23)C1 (racemic) [Example A164c, 3-((6-Cyclopropylimidazo[1,5-a]pyridin-5-yl)(hydroxy)methyl)cyclohexan-1-ol] |  |  | 54 | 0.57 |
| OC(c1c(C2CC2)ccn2cncc12)C1CCOCC1 (stereo not shown) [Example B112, (7-Cyclopropylimidazo[1,5-a]pyridin-8-yl)(tetrahydro-2H-pyran-4-yl)methanol] | 530 | 1.68 |  |  |
| OC(CC1CCCCC1)c1ccc(Cl)c2cncn12 (stereo not shown) [Example A025, 1-(8-chloroimidazo[1,5-a]pyridin-5-yl)-2-cyclohexylethan-1-ol] |  |  | 2500 | > 10 |

| Structure (SMILES) | IC50 (Recombinant IDO1; [2]) [nM] | EC50 [1, 2] [µM] | IC50 (Recombinant IDO1; [3]) [nM] | EC50 [1, 3] [µM] |
| --- | --- | --- | --- | --- |
| OC(c1c(C2CC2)ccn2cncc12)C1CC2C=CC1CC2 (stereo not shown) [Example B123, Bicyclo[2.2.2]oct-5-en-2-yl(7-cyclopropylimidazo[1,5-a]pyridin-8-yl)methanol] | 260 | 0.754 |  |  |
| OC1CCCC(C(O)c2c(C3CC3)ccc3cncn23)C1 (stereo not shown) [Example A164b, 3-((6-Cyclopropylimidazo[1,5-a]pyridin-5-yl)(hydroxy)methyl)cyclohexan-1-ol] |  |  | 42 | 0.226 |
| CCOC(COCC1(C(O)c2c(C3CC3)ccn3cncc23)CCCCC1)OCC (stereo not shown) [Example B137, (7-Cyclopropylimidazo[1,5-a]pyridin-8-yl)(1-((2,2-diethoxyethoxy)methyl)cyclohexyl)methanol] | 2200 | 3.29 |  |  |
| OC(c1c(C2CC2)ccn2cncc12)C1CCC(c2ccccc2)CC1 (single isomer, unassigned) [Example B143b, (S)-(7-cyclopropylimidazo[1,5-a]pyridin-8-yl)(cis or trans-4-phenylcyclohexyl)methanol] | 300 | 8.66 |  |  |
| OC(c1cccc2cncn12)C1CCCC1 (stereo not shown) [Example A002, cyclopentyl(imidazo[1,5-a]pyridin-5-yl)methanol] |  |  | 150 |  |
| OC(c1c(C2CC2)ccn2cncc12)[C@H]1CC[C@H](O)CC1 (single isomer, unassigned) [Example B119b, (trans)-4-((7-Cyclopropylimidazo[1,5-a]pyridin-8-yl)(hydroxy)methyl)cyclohexan-1-ol] | 5500 | > 10 |  |  |
| O=C(c1ccccc1)c1cccn2cncc12 [Example B003, Imidazo[1,5-a]pyridin-8-yl(phenyl)methanone] | > 100000 |  |  |  |
| OC(c1ccc(Cl)c2cncn12)C1CCCCC1 (stereo not shown) [Example A024, (8-chloroimidazo[1,5-a]pyridin-5-yl)(cyclohexyl)methanol] |  |  | 3300 |  |
| OC(c1ccccc1)c1cccc2cncn12 (stereo not shown) [Example A007, imidazo[1,5-a]pyridin-5-yl(phenyl)methanol] |  |  | 5100 |  |
| OC(Cc1ccccc1)c1cccc2cncn12 (stereo not shown) [Example A019, 1-(imidazo[1,5-a]pyridin-5-yl)-2-phenylethan-1-ol] |  |  | 21000 |  |
| CN1CCC(C(O)c2cccc3cncn23)CC1 (stereo not shown) [Example A014, Imidazo[1,5-a]pyridin-5-yl(1-methylpiperidin-4-yl)methanol] |  |  | > 100000 |  |
| OC(c1cccc2cncn12)C1CCCCC1 (single isomer, unassigned) [Example A001b] |  |  | 11000 |  |
| CC(C)(C)OC(=O)N1CCC(C(O)c2cccc3cncn23)CC1 (stereo not shown) [Example A012, Tert-butyl 4-(hydroxy(imidazo[1,5-a]pyridin-5-yl)methyl)piperidine-1-carboxylate] |  |  | 41000 |  |
| OC(c1cccc2cncn12)C1CCOCC1 (stereo not shown) [Example A010, imidazo[1,5-a]pyridin-5-yl(tetrahydro-2H-pyran-4-yl)methanol] |  |  | 3100 |  |
| CC(O)c1cccc2cncn12 (stereo not shown) [Example A017, 1-(imidazo[1,5-a]pyridin-5-yl)ethan-1-ol] |  |  | 62000 |  |
| CC(C)(C)OC(=O)N1CCC(C(=O)c2cccc3cncn23)CC1 [Example A011, Tert-butyl 4-(imidazo[1,5-a]pyridine-5-carbonyl)piperidine-1-carboxylate] |  |  | > 100000 |  |
| OC(c1ccc(Br)c2cncn12)C1CCCCC1 (stereo not shown) [Example A023, (8-bromoimidazo[1,5-a]pyridin-5-yl)(cyclohexyl)methanol] |  |  | 6500 |  |
| C#CC(O)c1cccc2cncn12 (stereo not shown) [Example A006, 1-(imidazo[1,5-a]pyridin-5-yl)prop-2-yn-1-ol] |  |  | 4600 |  |
